Experimental data: patent US6750247B2, “Sponge-derived terpenoids and methods of use” (Galileo Laboratories, Inc., priority 2001, dated 2004)

Tested on: primary hippocampal neuronal cells
Assay: Hippocampal anoxia-reoxygenation cell death assay
Type: cell-based, mice
Settings: for Percent Activity: at dose for max. activity, live neurons by Cell Tracker Green; for Percent Activity / Dose for Max. Activity: 5 hr hypoxia, 20-24 hr reoxygenation; for cell viability: compared to hypoxia-reoxygenated cells
Protocol: Neurobasal medium (Life Technologies, Rockville, Md.) with 1× B27 supplement (Life Technologies), […], 25 μM L-glutaxnic acid, and 1× Penicillin/Streptomycin was prepared fresh prior to use. Hank's Basic Salt Solution (HBSS, Ca/Mg-free) was prepared by preparing 1× Hanks CMF (Gibco) supplemented with HEPES (10 mM, pH 7.3), sodium bicarbonate (0.35%), 1× Penicillin/Streptomycin, and 1 mM pyruvate. Poly-D-lysine (Sigma, St. Louis, Mo.) was prepared by filtering a 50 μg/ml solution through 0.2 μm filter tubes. Sigmacote (Sigma, St. Louis, Mo.). Plastic Culture Flasks (T75 cm^2) or 12-well cell culture plates were then treated with Poly-D-Lysine (Sigma, St. Louis, Mo.).
Pregnant female mice (E18-E19) were euthanized with CO2 prior to removal of the uterus, which was then placed in a sterile plastic petri dish. The embryos were removed from the sac, and the embryonic brains removed and immersed in cold (4° C.) Hepes Buffered Salt Solution (HBSS; Ca/Mg free; Life Technologies) in a small petri dish. Hippocampi were then removed from the brains under a dissecting microscope and were placed on a paraffin-covered dish. The meninges were stripped away and the dissected hippocampi were collected in a small petri dish in HBSS. The hippocampi were transferred to a 15-ml centrifuge tube (normally 10-12 brains per tube) filled with HBSS. The tube containing the brains was centrifuged at 1000 rpm for 2 minutes in a GH 3.8 A rotor in an Allegra Centrifuge (Beckman Instruments, Fullerton, Calif.). The supernatant was removed, 2 ml of HBSS was added to the hippocampi in the tube, and the resulting suspension was triturated 2 times each with long-tipped siliconized glass pipettes having progressively smaller apertures, starting with a pipette with a standard size opening (approximately 1.0 mm diameter), following with one having an aperture of half standard size (approximately 0.5 mm diameter), then with one having an aperture about one-half that size (0.25 mm diameter). The suspension was then centrifuged again at 1000 rpm for 2 min in a tabletop centrifuge, the supernatant was discarded, and 2 ml of Neurobasal/B27i (with antibiotics) was added to the tube. The trituration procedure described above was then repeated on this suspension.
The density of cells was determined on a small aliquot of cells using standard counting procedures and correcting for cell viability by trypan blue stain exclusion. Using this procedure, the expected yield is 3×10^5-6×10^5 cells/brain. Cells were then added to PDL-coated 12 well plates, flasks or MetTek dishes in Neurobasal/B27I at a density of about 1.5×10^6 cells (T75 flask) or about 100,000 cells/well of a 12-well plate. Plated cells were incubated at 37° C. with 5% CO2 in air atmosphere. Media was renewed after 3-4 days by replacing half of it with fresh Neurobasal/B27m medium, containing 5 μM cytosine arabinoside (AraC). Seven to eight days from the initial culture, the media was renewed again, by removing one-half or it and replacing with an equal amount of fresh Neurobasal/B27m medium (without Ara-C).
This assay was used to induce ischemia by anoxia-reoxygenation in cultured hippocampal neuronal cells. Test compounds were added to assess potency and efficacy against ischemia-induced neuronal cell injury and cell death.
Neurobasal media, NoG neurobasal media, B27 supplement and B27 Supplement minus AO were obtained from Life Technologies. Neurobasal/B27 medium was prepared with 2× B27 minus AO supplement, 0.5 mM L-glutamine and 0.25× penicillin/streptomycin. Cell Tracker Green was obtained from Molecular Probes and a fresh 5 μM solution was prepared from 10 mM stock just before use. NoG-Neurobasal contains NoG neurobasal medium plus 0.5 mM glucose, 0.1 mM L-glutamine and 0.25× Penicillin/Streptomycin. Primary hippocampal neuronal cells were prepared according to the methods described above and were cultured in poly-D-lysine coated 12 well plates for 10-11 days prior to use. […]

SMILES | Percent Activity | Dose for Max. Activity [µg/mL] | cell viability
CC1=C(CC/C(C)=C/Cc2cc(C(=O)O)ccc2O)[C@]2(C)CCCC(C)(C)[C@H]2CC1 [(−)-subersic acid (1), 4-hydroxy-3-[3-methyl-5-(2,5,5,8a-tetramethyl-3,4,4a,5,6,7,8,8a-octahydro-naphthalen-1-yl)-pent-2-enyl]-benzoic acid] | No activity at 10 μg/mL | – | –
CC1=C(CC/C(C)=C/CC/C(C)=C/Cc2cc(O)ccc2O)C(C)(C)CCC1 [jaspaquinol (3), 2-[3,7-dimethyl-9-(2,6,6-trimethyl-cyclohex-1-enyl)-nona-2,6-dienyl]-benzene-1,4-diol] | 20% | 0.1 | increased cell viability
CC1=CCC[C@H](C)[C@]1(C)CC/C(C)=C/CCc1ccoc1 [(+)-subersin (2), 3-[4-methyl-6-(1,2,6-trimethyl-cyclohex-2-enyl)-hex-3-enyl]-furan] | 30% | 1 | increased cell viability
